Values of other authors as cited in patent publication US8968778B2, “Threo-DOPS controlled release formulation” (Lundbeck NA Ltd., priority 2003, dated 2015).

Assays:
[1] = tested on: microvessel preparations

N[C@H](C(=O)O)[C@H](O)c1ccc(O)c(O)c1 [L-threo-DOPS]
Time that increased plasma levels of both molecules (L-threo-DOPS and NE) remain (after oral administration of L-threo-DOPS): at least 12 hours
Time of peak plasma levels of L-threo-DOPS (after oral ingestion): 3 h
Time of peak NE levels (after oral ingestion of L-threo-DOPS, norepinephrine in plasma): 5 h

N[C@H](C(=O)O)[C@H](O)c1ccc(O)c(O)c1 [threo-DOPS, Threo-3-(3,4-dihydroxyphenyl)serine]
Specific uptake in microvessel preparations [1]: Specific uptake
